These results are taken from a melting point compilation (Tetko et al.; mined from patent text by program, amines drawn as free bases though some values may be those of a salt).

Molecules are shown by their SMILES. Bounds are passed on as bounds.

Compound `O=C(C1CN(S(=O)(=O)c2ccc3cc(Br)ccc3c2)CCN1C(=O)C1CCN(c2ccncc2)CC1)N1CCSCC1` (configuration not stated) showed a melting point of 250 to 258 °C.

For the compound `CCCC(=O)c1ccc(O)c(OC)c1`, the melting point was 40 to 41 °C.

`O=C(Nc1ccc(Br)cc1)c1ccccc1NCc1ccncc1` returned a melting point of 136 to 137 °C.

The compound `Cc1cc(NC(=O)NN(c2ccccc2)c2cccc(C(=N)N)c2)ccc1N1CCCCC1=O` gave a melting point of more than 300 °C.

In turn, `CC1(C)CC(C)(C)c2cc(Cl)c(O)cc21` returned a melting point of 52 °C.

Turning to `CCCCc1c[nH]c2c(Br)cccc2c1=O`, the melting point was 172 °C.

On to `O=C1CC(=C[N+](=O)[O-])Nc2ccccc2N1c1ccccc1`, for which the melting point lay in the range of 231 to 234 °C.

For `O=c1n(CCCC2CCCC2)ccn1-c1ccc(NS(=O)(=O)c2ccc3c(c2)CCC(CNCC(O)c2cccnc2)O3)cc1` (configuration not stated), the melting point was 90 to 92 °C.

`CC(C)CC(C)c1ccccc1NC(=O)c1cn(C)cc1C(F)(F)F` (configuration not stated) registered a melting point of 83 to 85 °C.

`COc1cc(C(=O)C#CCOC(C)=O)cc(OC)c1OC` displayed a melting point of 104 to 105 °C.

`O=C(Nc1ccccn1)C(CC1CCCC1)c1ccc(C(F)(F)F)c(F)c1` (configuration not stated): the melting point lay within 40 to 44 °C.

`O=c1c2c(Cc3cccs3)n[nH]c2c2cccnc2n1-c1ccccc1`: the melting point fell in the range of 282 to 284 °C.

Compound `CC=CC(=O)Nc1ccc2c(Nc3cccc(Br)c3)ncnc2c1` gave a melting point of more than 250 °C.

Regarding `CC(=O)c1ccc(OCc2ccccc2)c(OC/C=C/CN2CCC(c3noc4cc(F)ccc34)CC2)c1`, the melting point fell in the range of 124 to 125 °C.

Regarding `NCc1cccc2c1CN(c1nc3c(cc1F)c(=O)c(C(=O)O)cn3C1CC1)C2`, the melting point was more than 300 °C.

In turn, `COC(=O)C1COc2c(C(=O)c3ccccc3)cc(C)cc21` (configuration not stated) yielded a melting point of 110 to 111 °C.

As to `O=C(O)CCCCCC(=O)CCc1ccc(Cl)cc1`, the melting point is 93 to 96 °C.

`CCCSc1ncc(C(=O)N[C@H](C(=O)O)[C@@H](C)CC)n1Cc1ccccc1Cl` registered a melting point of 156 to 158 °C.

Consider `COc1ccc(OC)c(-c2cn(C)cc(C#N)c2=O)c1`, for which the melting point is 209 to 211 °C.

For the compound `CCCCCC(C)(C)NC(=O)CN1C(=O)c2ccccc2C1=O`, the melting point amounted to 142 °C.

Compound `O=C(N1CCc2ccc(Cl)c(O)c2CC1)C(F)(F)F` yielded a melting point of 133 to 134 °C.

Turning to `O=C(NC(CS)Cc1ccccc1)N1CCN(c2cccc(C(F)(F)F)c2)CC1` (single isomer, unassigned; (+)), the melting point was 130 to 132 °C.

Compound `CC(CC(C(=O)N(C)C)(c1ccccc1)c1ccccc1)N1CCC(NC(=O)c2cccc(C(F)(F)F)c2)C(O)C1` (configuration not stated) came in with a melting point of 141 °C.

In turn, `CN(C)C(=O)CC1(C)OCCC2=C1c1ccccc1C2` (configuration not stated) returned a melting point of 112 to 114 °C.

As to `Cc1nc2c3c(c(C(=O)NN4CC4)cc2n1C)CCC(c1ccccc1)N3` (configuration not stated), the melting point is 192 to 193 °C.

For the compound `Cn1cc(C2CCC(=O)C2)c2cc(C#N)ccc21` (configuration not stated), the melting point lay within 167 to 168 °C.

In turn, `C[C@@H]1OCCN(c2nc(N3CCOCC3)nc(-n3c(C(F)F)nc4ccccc43)n2)[C@@H]1C` (relative stereo) showed a melting point of 176 to 178 °C.

Consider `O=C(Nc1cc(-c2cc(Nc3ccc(N4CCNCC4=O)cn3)c(=O)[nH]n2)ccc1F)c1cc2c(s1)CCCC2`, for which the melting point fell in the range of 285 to 287 °C.

`Cc1ccc2nc3n(c(=O)c2c1)-c1ccccc1C3=O` displayed a melting point of 266 to 267 °C.

`O=C(O)CCNC(=O)C(CS)C(F)(F)F` (configuration not stated) showed a melting point of 108 to 110 °C.

`CC1(C)COC(c2ccc(CC34CCCCN3C(=O)N(c3cc(Cl)cc(Cl)c3)C4=O)cc2)=N1` (configuration not stated) yielded a melting point of 87.2 °C.

Compound `COc1cc2ccc3c4cc(OCc5ccccc5)c(OC)cc4nnc3c2cc1OC` returned a melting point of 244 to 246 °C.

`CC(C)(C)c1cc(C=C2CCNC2=O)cc(C(C)(C)C)c1O` yielded a melting point of 216 to 218 °C.

As to `Fc1ccc2[nH]c(CN3C[C@@H]4C[C@H]3CN4c3ccccn3)cc2c1`, the melting point fell in the range of 211 to 214 °C.

The compound `COc1ccc(-c2nc(N)n3nc(-c4ccco4)nc3n2)cc1OC` came in with a melting point of 205 to 208 °C.

Compound `CC(C)(C)CC(=O)N1CCC(c2ccc(COc3ccc(S(C)(=O)=O)cc3)nc2)CC1` came in with a melting point of 140 to 142 °C.

For the compound `COc1ccc(COc2ccccc2-c2cccc(N)c2)cc1`, the melting point was 68 to 70 °C.

Regarding `Cc1ccccc1-c1cc(Cl)cc2c1NC(CN)CO2` (configuration not stated), the melting point came out at 86 °C.

In turn, `CCCC(C(N)=O)C(=O)O` (configuration not stated) came in with a melting point of 137 °C.

The compound `O=C(O)C(Cl)=C(Cl)C(=O)c1ccccc1` came in with a melting point of 228 °C.

`CCc1nc2c(ccc3nc(C)c(C)nc32)cc1C` had a melting point of 137 to 138 °C.

Turning to `CCOC(=O)C(=NOCCCl)c1csc(N)n1`, the melting point was 126 to 128 °C.

`CC(C)OC(=O)Nc1ccc(-c2ccnc3c(C(=O)c4cccs4)cnn23)s1` yielded a melting point of 210 to 215 °C.

In turn, `CC1CCc2c(N3CCCCC3)c(F)cc3c(=O)c(C(=O)O)cn1c23` (configuration not stated) registered a melting point of 258 to 261 °C.

For `O=C1c2ccccc2C(=O)N1Cc1noc(-c2ncn3c2[C@@H]2CCN2C(=O)c2c(Cl)cccc2-3)n1`, the melting point fell in the range of 189 to 192 °C.

Consider `CC(C)(C)OC(=O)N[C@@H]1CCCC[C@H]1OCC(=O)O` (relative stereo), for which the melting point was in the range of 205 to 207 °C.

The compound `O=C(c1cccc2c1NCC2)N1CCN(c2cccc(C(F)(F)F)c2)CC1` yielded a melting point of 115 to 118 °C.

In the case of `CS(=O)(=O)c1ccc(-c2[nH]c(S)nc2-c2ccc(F)cc2)cc1`, the melting point was in the range of 158 to 161 °C.

`C(=C1CN2CCC1CC2)c1ccc(-c2ccccc2)cc1`: the melting point was determined as 107 °C.

In the case of `COc1ccc2ncc3c(c2c1)[C@@H](O)C(OC)(OC)C[C@@H]3C`, the melting point was 135 to 136 °C.

For the compound `CC(=O)OCc1ccc2oc(=O)c(C(=O)Oc3cc(Cl)ccc3Cl)cc2c1`, the melting point lay in the range of 168 to 171 °C.

In turn, `N#CN1CCC(Nc2ncc3ncnc(Nc4ccc(F)c(Cl)c4)c3n2)CC1` came in with a melting point of 245 to 247 °C.

As to `CC(c1ccc(C#Cc2ccccc2)cc1)N(O)C(N)=O` (configuration not stated), the melting point was 144 to 146 °C.

With `COc1ccc2[nH]cc(CC(=O)N3C[C@@H]4[C@H](C3)[C@@](O)(c3ccccc3OC)[C@H](O)CC4(c3ccccc3)c3ccccc3)c2c1` (racemic), the melting point is 204 to 206 °C.

`CCCC(=O)c1cnc2c(OCCOC)cccc2c1Nc1ccc(F)cc1C` yielded a melting point of 124 to 125 °C.

Take `COc1ccc(S(=O)(=O)Nc2cccnc2Nc2ccc(OC)nc2)cc1`: the melting point was in the range of 159 to 160 °C.

Regarding `O=[N+]([O-])c1cncn1CCO`, the melting point fell in the range of 101 to 102 °C.

In turn, `CCC(C)(C)Nc1c(NCc2cccc(Cl)c2C)c(=O)c1=O` gave a melting point of 236 to 237 °C.

Turning to `CC(C)(C)c1ccc(CN(O)Cc2ccc(C(C)(C)C)cc2)cc1`, the melting point was 108 to 110 °C.

`CCOC(=O)c1cn(C)c2ccc(C(=O)c3c(C)cc4ccccn34)cc2c1=O`: the melting point is 232 °C.

`CC(C)(C)OC(=O)NC1(C(=O)NCC(F)(F)F)CC1` displayed a melting point of 166 to 167 °C.

`COc1ccccc1-c1ccc2c(c1)CCCc1c-2nc2ccc(F)cc2c1C(=O)O` returned a melting point of more than 300 °C.
